# Columns and labels:
# [1] = target: T1, human orexin 1 receptor (Homo sapiens, UniProt O43613); assay: Radioligand binding assay ([3H]-SB649868 competition), human orexin 1 receptor; conditions: radioligand [3H]-SB649868; read-out: Binding hOx1R Kd
# T1 construct: expressed in transfected cells
# T1 sequence (O43613 1-425): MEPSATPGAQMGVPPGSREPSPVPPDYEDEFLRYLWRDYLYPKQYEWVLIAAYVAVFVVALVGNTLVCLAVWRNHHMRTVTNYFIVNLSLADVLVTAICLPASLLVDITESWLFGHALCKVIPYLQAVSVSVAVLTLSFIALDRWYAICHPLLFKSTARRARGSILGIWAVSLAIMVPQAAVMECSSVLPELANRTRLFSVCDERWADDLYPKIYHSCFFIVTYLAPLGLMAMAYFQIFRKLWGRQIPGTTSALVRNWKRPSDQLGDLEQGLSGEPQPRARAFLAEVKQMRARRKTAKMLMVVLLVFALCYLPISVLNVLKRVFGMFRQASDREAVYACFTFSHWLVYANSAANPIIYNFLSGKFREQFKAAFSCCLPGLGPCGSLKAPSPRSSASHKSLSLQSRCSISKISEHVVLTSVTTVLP
# Outline: (§1)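 Competition binding against roughly 1 nM [3H]-SB649868, run in triplicate for 1 h at room temperature on CHO or HEK membranes bearing human receptor (10 mM HEPES pH 7.5, 0.5% BSA, 5 mM MgCl2, 1 mM CaCl2, 0.05% tween). Bound radioactivity after vacuum filtration; almorexant 10 μM for non-specific binding; expressed as Kd.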
# [2] = target: T1, human orexin 1 receptor; assay: Calcium accumulation in cells (FLIPR), antagonism of orexin A, human orexin 1 receptor; assay type: cell-based; conditions: for Ki: calcium accumulation, antagonism of orexin A, Cheng-Prusoff corrected, read-out: FLIPR hOx1R Ki; for inhibition at 10 µM: measured at a concentration of 10 μM of compound, read-out: FLIPR hOx1R % inhibition
# [3] = target: T2, human orexin 2 receptor (Homo sapiens, UniProt O43614); assay: Radioligand binding assay ([3H]-SB649868 competition), human orexin 2 receptor; conditions: radioligand [3H]-SB649868; read-out: Binding hOx2R Kd
# T2 construct: expressed in transfected cells
# T2 sequence (O43614 1-444): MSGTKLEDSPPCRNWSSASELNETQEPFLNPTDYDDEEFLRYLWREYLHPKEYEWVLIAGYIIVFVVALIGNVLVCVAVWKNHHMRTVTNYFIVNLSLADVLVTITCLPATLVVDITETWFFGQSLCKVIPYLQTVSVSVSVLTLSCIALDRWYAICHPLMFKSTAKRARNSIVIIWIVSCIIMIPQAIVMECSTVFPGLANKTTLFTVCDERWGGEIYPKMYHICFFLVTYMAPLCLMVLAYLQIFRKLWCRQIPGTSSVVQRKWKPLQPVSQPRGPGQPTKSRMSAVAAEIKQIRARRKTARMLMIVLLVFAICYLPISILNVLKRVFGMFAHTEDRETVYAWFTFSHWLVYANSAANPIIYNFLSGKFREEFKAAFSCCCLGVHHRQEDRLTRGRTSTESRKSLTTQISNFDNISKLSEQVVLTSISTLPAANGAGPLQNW
# Outline: as §1
# [4] = target: T2, human orexin 2 receptor; assay: Calcium accumulation in cells (FLIPR), antagonism of orexin A, human orexin 2 receptor; assay type: cell-based; conditions: calcium accumulation, antagonism of orexin A, Cheng-Prusoff corrected; read-out: FLIPR hOx2R Ki
SMILES,Kd [1] [nM],Ki [2] [nM],Kd [3] [nM],Ki [4] [nM],inhibition at 10 µM [2] [%]
"CC(=O)c1cccc(-c2cn(C)nc2CN2CCNC3(CCN(c4nc(C)cc(C)n4)CC3)C2=O)c1 [Example 1.48, 4-((4-(3-Acetylphenyl)-1-methyl-1H-pyrazol-3-yl)methyl)-9-(4,6-dimethyl-pyrimidin-2-yl)-1,4,9-triazaspiro[5.5] undecan-5-one]",2270,2740,99,12,–
"COc1cccc(-c2nn(C)nc2CN2CCC3(CCN(c4nc(C)cc(OC)n4)C3)C2=O)c1 (stereo not drawn) [Example 5.45, 7-(4-methoxy-6-methylpyrimidin-2-yl)-2-((5-(3-methoxyphenyl)-2-methyl-2H-1,2,3-triazol-4-yl)methyl)-2,7-diazaspiro[4.4]nonan-1-one]",97,29,21,2.8,–
"COCc1cccc(-c2ocnc2CN2CCNC3(CCN(c4nc(C)cc(OC)n4)CC3)C2=O)c1 [Example 1.29, 9-(4-Methoxy-6-methylpyrimidin-2-yl)-4-((5-(3-(methoxymethyl)phenyl)oxazol-4-yl)methyl)-1,4,9-triazaspiro[5.5] undecan-5-one]",1320,1430,100,75,–
"COc1cccc(-c2n[nH]nc2CN2CCNC3(CCN(c4nc(C)cc(C)n4)CC3)C2=O)c1 [Example 1.39, 9-(4,6-Dimethyl-pyrimidin-2-yl)-4-((5-(3-methoxy-phenyl)-2H-1,2,3-triazol-4-yl)methyl)-1,4,9-triazaspiro[5.5] undecan-5-one]",231,304,13,2,–
"N#Cc1ccnc(N2CCC3(CCC(=O)N3Cc3cccc4[nH]ccc34)CC2)c1 [Example 8.4, 2-(1-((1H-Indol-4-yl)methyl)-2-oxo-1,8-diazaspiro[4.5]decan-8-yl)isonicotinonitrile]",> 10000,–,348,45,36
"COCCOc1cccc(-c2nn(C)nc2CN2CCNC3(CCN(c4nc(C)cc(C)n4)CC3)C2=O)c1 [Example 1.78, 9-(4,6-dimethyl-pyrimidin-2-yl)-4-((5-(3-(2-methoxyethoxy)phenyl)-2-methyl-2H-1,2,3-triazol-4-yl)methyl)-1,4,9-triazaspiro[5.5] undecan-5-one]",709,1870,28,9,–
"COc1cccc(-c2ocnc2CN2CCNC3(CCN(c4nc(C)cc(C#N)n4)CC3)C2=O)c1 [Example 1.11, 2-(4-((5-(3-Methoxyphenyl)oxazol-4-yl)methyl)-5-oxo-1,4,9-triazaspiro[5.5]undecan-9-yl)-6-methylpyrimidine-4-carbonitrile]",2220,2660,37,10,–
"Cc1cc(C)nc(N2CCC3(CC2)NCCN(Cc2nn(C)nc2-c2cccc(OC(C)C)c2)C3=O)n1 [Example 1.79, 9-(4,6-dimethyl-pyrimidin-2-yl)-4-((5-(3-isopropoxy-phenyl)-2-methyl-2H-1,2,3-triazol-4-yl)methyl)-1,4,9-triazaspiro[5.5] undecan-5-one]",535,166,22,3.7,–
"O=C1N(Cc2c[nH]c3ccccc23)CCC12CCN(c1cnc3ccccc3n1)CC2 [Example 3.2, 2-((1H-Indol-3-yl)methyl)-8-(quinoxalin-2-yl)-2,8-diazaspiro[4.5]decan-1-one]",920,1060,121,41,–
"COCc1cccc(-c2ocnc2CN2CCNC3(CCN(c4nc(C)cc(C)n4)CC3)C2=O)c1 [Example 1.27, 9-(4,6-Dimethyl-pyrimidin-2-yl)-4-((5-(3-(methoxymethyl)phenyl)oxazol-4-yl)methyl)-1,4,9-triazaspiro[5.5] undecan-5-one]",5140,–,140,94,34
"COc1cccc(-c2n[nH]nc2CN2CCCC3(CCN(c4nccc(OC)n4)C3)C2=O)c1 (stereo not drawn) [Example 7.6, 7-((5-(3-Methoxyphenyl)-2H-1,2,3-triazol-4-yl)methyl)-2-(4-methoxypyrimidin-2-yl)-2,7-diazaspiro[4.5]decan-6-one]",187,189,170,65,–
"Cc1cc(C)nc(N2CCC3(CCC(=O)N3Cc3cccc4[nH]ccc34)CC2)n1 [Example 8.3, 1-((1H-Indol-4-yl)methyl)-8-(4,6-dimethylpyrimidin-2-yl)-1,8-diazaspiro[4.5]decan-2-one]",2380,1210,30,2.3,–
"COc1cc(C)nc(N2CCC3(CC2)NCCN(Cc2n[nH]c4ccccc24)C3=O)n1 [Example 1.65, 4-((1H-indazol-3-yl)methyl)-9-(4-methoxy-6-methyl-pyrimidin-2-yl)-1,4,9-triazaspiro[5.5] undecan-5-one]",1160,1580,58,21,–
"COc1cccc(-c2sc(C)nc2CN2CCNC3(CCN(c4nc(C)cc(C)n4)CC3)C2=O)c1 [Example 1.24, 9-(4,6-Dimethyl-pyrimidin-2-yl)-4-((5-(3-methoxyphenyl)-2-methylthiazol-4-yl)methyl)-1,4,9-triazaspiro[5.5] undecan-5-one]",924,766,35,10,–
"COc1cc(C)nc(N2CCC3(CCN(Cc4nn(C)nc4-c4ccccc4)C3=O)C2)n1 (stereo not drawn) [Example 5.43, 7-(4-methoxy-6-methylpyrimidin-2-yl)-2-((2-methyl-5-phenyl-2H-1,2,3-triazol-4-yl)methyl)-2,7-diazaspiro[4.4]nonan-1-one]",339,421,118,29,–
"Cc1cc(C)nc(N2CCC3(CC2)NCCN(Cc2c[nH]c4ccc(F)cc24)C3=O)n1 [Example 1.4, 9-(4,6-Dimethylpyrimidin-2-yl)-4-((5-fluoro-1H-indol-3-yl)methyl)-1,4,9-triazaspiro[5.5]undecan-5-one]",770,601,17,6,–
"CN(C)c1cc(C(F)(F)F)nc(N2CCC3(CCN(Cc4c[nH]c5ccccc45)C3=O)C2)n1 (stereo not drawn) [Example 5.47, 2-((1H-indol-3-yl)methyl)-7-(4-(dimethylamino)-6-(trifluoromethyl)pyrimidin-2-yl)-2,7-diazaspiro[4.4]nonan-1-one]",1030,193,518,97,–
"COc1cc(C)nc(N2CCC3(CCCN(Cc4c[nH]c5ccccc45)C3=O)C2)n1 (stereo not drawn) [Example 7.1, 7-((1H-Indol-3-yl)methyl)-2-(4-methoxy-6-methylpyrimidin-2-yl)-2,7-diazaspiro[4.5]decan-6-one]",14,31,13,10,–
"CCc1cccc(-c2cn(C)nc2CN2CCNC3(CCN(c4nc(C)cc(C)n4)CC3)C2=O)c1 [Example 1.67, 9-(4,6-dimethyl-pyrimidin-2-yl)-4-((4-(3-ethyl-phenyl)-1-methyl-1H-pyrazol-3-yl)methyl)-1,4,9-triazaspiro[5.5] undecan-5-one]",1770,1140,50,5,–
"COc1cccc(-c2nn(C)nc2CN2CCNC3(CCN(c4nc(C)cc(C)n4)CC3)C2=O)c1 [Example 1.5, 9-(4,6-Dimethylpyrimidin-2-yl)-4-((5-(3-methoxyphenyl)-2-methyl-2H-1,2,3-triazol-4-yl)methyl)-1,4,9-triazaspiro[5.5] undecan-5-one]",928,1490,31,7,–
"COc1cccc(-c2ocnc2CN2CCOC3(CCN(c4nc(C)cc(OC)n4)CC3)C2=O)c1 [Example 2.20, 9-(4-Methoxy-6-methylpyrimidin-2-yl)-4-((5-(3-methoxyphenyl)oxazol-4-yl)methyl)-1-oxa-4,9-diazaspiro[5.5]undecan-5-one]",57,43,7,2,–

# From patent publication US20120165331A1, “Di/tri-aza-spiro-C9-C11alkanes” (priority 2010, published 2012)
